This is an account of results in patent publication US11401278B2, “Macrocyclic indole derivatives” (The Broad Institute, Inc., priority 2017, dated 2022).

Data set [1] has as its system SUDHL10. In words: Induction of cytotoxicity (Assay 6), SUDHL10. The settings on record: read-out: Cytotox SUDHL10 [M] (median) IC50, CellTiter-Glo, 5 hours, SUDHL10.
For data set [2], the system named is SUDHL5. In words: Induction of caspase-3/7 activity (Assay 4), SUDHL5. Format: cell-based. The settings on record: caspase-3/7 induction, median. As for the experimental part: (§1) Cellular Assays Assay 4 Induction of Caspase-3/7 Activity Upon Treatment of Cells with Selected Compounds
(§2) The BH3-domain of MCL-1 sequesters pro-apoptotic proteins, thereby inhibiting apoptosis. In contrast, MCL-1 inhibitors are expected to antagonize this effect leading to an increase in apoptosis, which can be determined by measuring the activity of caspase-3/7.
(§3) The activity of caspase-3/7 was determined in DLBCL (Diffuse large B-cell lymphoma) cell lines (SUDHL5 and SUDHL10) upon treatment with different compounds, using the Caspase-Glo® 3/7 reagent from Promega (G8092).
(§4) Rim wells were excluded. The cells were incubated for 3 hours in a humidified incubator at 37° C.
(§5) For the evaluation of the results, the background measured with “medium-only” was subtracted from all other values. […] The Bella DRC Master Sheet was used to calculate EC50s, with fixed C0=1 and CI=plateau/max induction for the reference compound.

The target in a further data set is MCL-1 (Homo sapiens (Human), UniProt Q07820, K194A/K197A/R201A). Put plainly: Protein-protein interaction assay MCL-1/Noxa BH3 peptide (MCL-1 assay, TR-FRET). The settings on record: MBP-MCL-1 / Noxa BH3 peptide, median. In kind it is binding. As for the experimental part: Protein-Protein Interaction Assay: MCL-1/Noxa BH3 Peptide (MCL-1 Assay)
The dose-dependent inhibition by the compounds described in this invention of the interaction between MCL-1 and the BH3 domain of Noxa (both human) was determined using a steady state binding competition assay with time-resolved fluorescence energy transfer (TR-FRET) readout. For that purpose MCL-1 (amino acids 173-329, N-terminal fused to Maltose Binding Protein (MBP) SEQ ID 1) and a synthetic Noxa BH3-derived peptide of sequence Biotin-PEG2-PEG2-PAELEVE-Nva-ATQLRRFGDKLNFRQKLL-amide (SEQ ID 2) served as protein receptor and tracer ligand respectively. The MBP-MCL-1 was purchased from Beryllium (Bedford, Mass., USA). The expression and purification of this protein construct has been described elsewhere (DOI:10.1371/journal.pone.0125010). The Noxa BH3-derived peptide can be obtained from e.g. Biosyntan (Berlin, Germany).
In the assay 11 different concentrations of each compound (0.1 nM, 0.33 nM, 1.1 nM, 3.8 nM, 13 nM, 44 nM, 0.15 μM, 0.51 μM, 1.7 μM, 5.9 μM and 20 μM) were typically measured as duplicates in the same microtiter plate. For that, 100-fold concentrated DMSO solutions were prepared by serial dilutions (1:3.4) of a 2 mM stock solution in a clear, 384-well microtiter plate (Greiner Bio-One, Frickenhausen, Germany). From there, 50 nl were transferred in a dark test plate (Greiner Bio-One, Frickenhausen, Germany). The assay was initiated by addition of 2 μl of a 2.5-fold concentrated MBP-MCL-1 solution (usually for a 1 nM end concentration in 5 μl reaction volume) in aqueous assay buffer [50 mM Tris/HCl pH 7, 100 mM sodium chloride (NaCl), 50 mM potassium fluoride (KF), 0.005% Tween-20, 2 mM DTT, 0.1% bovine gamma globulin (BGG)] to the compounds in the assay plate. This was followed by a 10-minute incubation step at 22° C. for pre-equilibration of the putative complex between MBP-MCL-1 and the compounds. After that, 3 μl of a 1.67-fold concentrated solution (in assay buffer) consisting of Noxa BH3-derived peptide (1 nM end concentration) and TR-FRET detection reagents [1.67 nM anti-MBP-Eu cryptate and 1.67 nM streptavidin-XL665 (both from Cisbio Bioassays, Codolet, France)], were added.
The mixture was incubated in the dark for one hour at 22° C. and then overnight at 4° C. The formation of MCL-1/Noxa complexes was determined by measuring the resonance energy transfer of the anti-MBP-Eu-cryptate antibody to the streptavidin-XL665 present in the reaction. For that purpose, the fluorescence emission at 620 nm and 665 nm after excitation at 330-350 nm was measured in a TR-FRET measuring instrument, for instance a Rubystar or a Pherastar (both from BMG Lab Technologies, Offenburg, Germany) or a Viewlux (Perkin-Elmer). The ratio of the emission at 665 nm and at 622 nm was used as indicator of the amount of MCL-1/NOXA complexes present.
The resulting data (ratio) were normalized, taking 0% inhibition as the mean value of control measurements (usually 32 data points) where all reagents were included. In this case 50 nl DMSO were used instead of compounds. A 100% inhibition corresponded to the mean value of control measurements (usually 32 data points) where all reagents except MCL-1 were included. IC50 values were determined by regression analysis based on a 4 parameter equation (minimum, maximum, IC50, Hill; Y=Max+(Min−Max)/(1+(X/IC50)^HiII) using the Screener Software (Genedata).

Data set [3] concerns SUDHL5. In words: Induction of cytotoxicity (Assay 6), SUDHL5. Conditions: read-out: Cytotox SUDHL5 [M] (median) IC50, CellTiter-Glo, 5 hours, SUDHL5.
Description: Assay 6 Induction of Cytotoxicity Upon Treatment of Cells with Selected Compounds
Therefore, cytotoxicity assays were run in parallel in SUDHL5 and SUDHL10 cells.
The different cell lines were plated in culture medium (RPMI 1640 [GIBCO #22400-089] supplemented with 10% Fetal Bovine Serum) at a density of 3,300 cells in 30 μl/well in a sterile, solid black, flat bottom, polystyrene, TC-treated 384-well microplate (Corning #3571) using Multidrop Combi Reagent Dispenser. As a control, medium without cells was also added to the plate. Cells were incubated in a humidified incubator at 37° C. overnight. On the next day, the cells were treated with compounds (stock solution, 10 mM in DMSO) using the HP D300 Digital Dispenser in a concentration range of 3.3×10e-5 M (33 μM) to 5×10e-9 M (5 nM) in a single-dot curve with at least 16 dilutions and a DMSO concentration of 0.33%. Rim wells were excluded. The cells were incubated for 5 hours in a humidified incubator at 37° C. After this incubation, 30 μl of CellTiter-Glo® Luminescent Cell Viability reagent (Promega, G7573) was added to each well using the Multidrop Combi Reagent Dispenser, followed by 15 minutes incubation on a shaker at room temperature. Finally, luminescence was read at 0.1 ms, with a gain of 3000 using the PHERAstar FS microplate reader (BMG Labtech).
In data set [4] the test system is SUDHL10. Put plainly: Induction of caspase-3/7 activity (Assay 4), SUDHL10. Conditions: caspase-3/7 induction, median. In kind it is cell-based. As for the experimental part:
as §1, §2, §3, §4, §5

A further data set relates to AMO-1. Put plainly: Antiproliferation assay (Assay 7), AMO-1. In kind it is cell-based. The settings on record: CellTiter-Glo, several values per example, read-out: Antiproli AMO-1 [M] IC50. As for the experimental part: (§6) Assessment of the Anti-Proliferative Effect of Compounds in Different Cell Lines
(§7) The impact of compounds on the proliferation of different cell lines was assessed using the CellTiter-Glo® Luminescent Cell Viability reagent from Promega (G7573).
(§8) In parallel, cells were plated in a reference (day 0) plate for time zero determination.
(§9) Rim wells were excluded. The cells were incubated for 72 hours in a humidified incubator at 37° C. The day 0 plate was measured by adding 30 μL/well of CTG solution (CellTiter-Glo® Luminescent Cell Viability reagent, Promega G7573) to time zero wells in the reference plate followed by a 10 minutes incubation and luminescence reading at 0.1 ms. using the PHERAstar FS microplate reader (BMG Labtech).
(§10) After 72 hours incubation, the treated plates were measured in the same way as the day 0 plate mentioned above.

The subject of data set [5] is SUDHL5. In words: Antiproliferation assay (Assay 7), SUDHL5. Conditions: CellTiter-Glo, median, read-out: Antiproli SUDHL5 [M] (median) IC50. In kind it is cell-based. How it is done:
as §6, §7, §8, §9, §10

For another data set, the system named is MV-4-11. In words: Antiproliferation assay (Assay 7), MV-4-11. The settings on record: Homo sapiens, MV4-11, 72 h, CellTiter-Glo, several values per example, read-out: Antiproli MV-4-11 [M] IC50. In kind it is cell-based. As for the experimental part:
as §6, §7, §8, §9, §10

A further data set concerns HMC-1-8. Put plainly: Antiproliferation assay (Assay 7), HMC-1-8. Format: cell-based. Conditions: CellTiter-Glo, 72 hours, several values per example, read-out: Antiproli HMC-1-8 [M] IC50. As for the experimental part: as §6, §7, §8, §9, §10

Where a name gives a salt, the structure may show the parent alone. Read-outs that look alike come from different tables or passages of the source. A value given as a limit tells only on which side of the number the result lay.

MCL-1, sequence (Q07820 whole entry K194A/K197A/R201A, looked up, the tested form may be a part): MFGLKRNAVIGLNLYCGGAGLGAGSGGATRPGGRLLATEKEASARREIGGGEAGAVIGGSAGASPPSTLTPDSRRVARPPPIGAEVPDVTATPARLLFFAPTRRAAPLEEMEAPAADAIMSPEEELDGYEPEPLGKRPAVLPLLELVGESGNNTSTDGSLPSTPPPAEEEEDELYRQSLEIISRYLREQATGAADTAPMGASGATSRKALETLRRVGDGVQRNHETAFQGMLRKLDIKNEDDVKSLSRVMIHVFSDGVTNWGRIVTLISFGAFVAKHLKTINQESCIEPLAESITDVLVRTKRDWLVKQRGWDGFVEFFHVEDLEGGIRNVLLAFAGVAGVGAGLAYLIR

On to `CCc1c2c(nn1C)C(N1CCOCC1)CCN(C)S(=O)(=O)CCCn1c(C(=O)O)c(CCCOc3cccc4cc(F)ccc34)c3ccc(Cl)c-2c31` (racemic) [Example 69, (rac)-15-chloro-14-ethyl-1-(3-((6-fluoronaphthalen-1-yl)oxy)propyl)-8,13-dimethyl-11-(rac)-morpholino-5,6,9,10,11,13-hexahydro-4H,8H-pyrazolo[3′,4′:6,7][1]thia[2,10]diazacyclotridecino[8,9,10-hi]indole-2-carboxylic acid 7,7-dioxide (Mixture of Stereoisomers)], for which the concentration for half-maximal inhibition (IC50) with SUDHL10 [1] (Homo sapiens, SU-DHL10, 5 h) was 1.3e-06 M; on MCL-1, 1.5 nM; with SUDHL5 [3] (Homo sapiens, SU-DHL-5, 5 h), 3.1e-07 M. For the same compound, the EC50 in the data set with SUDHL5 [2] (Homo sapiens, SU-DHL-5, 3 h) came to 250 nM; in the data set on SUDHL10 [4] (Homo sapiens, SU-DHL10, 3 h), 650 nM.
Regarding `CCc1c2c(nn1C)CN(C)S(=O)(=O)CCCn1c(C(=O)O)c(CCCOc3cccc4cc(F)ccc34)c3ccc(Cl)c-2c31` (racemic) [Example 19, (rac)-13-Chloro-12-ethyl-1-(3-((6-fluoronaphthalen-1-yl)oxy)propyl)-8,11-dimethyl-5,6,9,11-tetrahydro-4H,8H-pyrazolo[3′,4′:4,5][1]thia[2,8]diazacycloundecino[6,7,8-hi]indole-2-carboxylic acid 7,7-dioxide], the IC50 with AMO-1 (Homo sapiens, AMO1, 72 h) was determined as 1.5e-06 M; in the data set on SUDHL5 [5] (Homo sapiens, SU-DHL-5, 72 h), 3.1e-07 M; in the data set with SUDHL10 [1] (Homo sapiens, SU-DHL10, 5 h) it was 8.5e-07 M; against MCL-1, 1.8 nM; in the data set with MV-4-11, 8.39e-07 M; in the data set on SUDHL5 [3] (Homo sapiens, SU-DHL-5, 5 h), 4.6e-07 M. Besides, the EC50 in the data set on SUDHL5 [2] (Homo sapiens, SU-DHL-5, 3 h) was found to be 420 nM; in the data set with SUDHL10 [4] (Homo sapiens, SU-DHL10, 3 h) it was 610 nM.
With `Cc1c2c(nn1C)CN(C)S(=O)(=O)CCCn1c(C(=O)O)c(CCCOc3cccc4ccccc34)c3cccc-2c31` (single isomer, unassigned; enantiomer 1) [Example 11, (+)-2,3,14-Trimethyl-7-[3-(1-naphthyloxy)propyl]-11,12,14,15-tetrahydro-2H,10H-pyrazolo[3′,4′:4,5][1,2,8]thiadiazacycloundecino[6,7,8-hi]indole-8-carboxylic acid 13,13-dioxide-N-ethylethanamine Salt (Enantiomer 1)], the IC50 came to 3.7e-06 M in the data set on SUDHL10 [1] and 1.6e-06 M in the data set on SUDHL5 [3].
In the case of `CCc1c2c(nn1C)C(N1CCOCC1)CCN(C)S(=O)(=O)CCCn1c(C(=O)O)c(CCCOc3cccc4cc(F)ccc34)c3ccc(Cl)c-2c31` (single isomer, unassigned; enantiomer 2) [Example 71, (−)-4-chloro-3-ethyl-7-{3-[(6-fluoro-1-naphthyl)oxy]propyl}-2,14-dimethyl-17-(morpholin-4-yl)-11,12,14,15,16,17-hexahydro-2H,10H-pyrazolo[3′,4′:6,7][1,2,10]thiadiazacyclotridecino[8,9,10-hi]indole-8-carboxylic acid 13,13-dioxide trifluoroacetate salt (Enantiomer 2)], the IC50 is 1.3e-07 M in the data set on SUDHL5 [5] (72 hours); 1.5e-07 M with SUDHL10 [1]; 0.8 nM against MCL-1; 1e-07 M in the data set with SUDHL5 [3]; 3.2e-06 M in the data set with HMC-1-8. Further, the EC50 in the data set with SUDHL5 [2] (3 hours) was determined as 71 nM; with SUDHL10 [4] (3 hours), 140 nM.
On to `Cc1c2c(nn1C)CN(C)S(=O)(=O)CCCn1c(C(=O)O)c(CCCOc3cccc4ccccc34)c3cccc-2c31` (single isomer, unassigned; enantiomer 2) [Example 12, (−)-2,3,14-Trimethyl-7-[3-(1-naphthyloxy)propyl]-11,12,14,15-tetrahydro-2H,10H-pyrazolo[3′,4′:4,5][1,2,8]thiadiazacycloundecino[6,7,8-hi]indole-8-carboxylic acid 13,13-dioxide-N-ethylethanamine Salt (Enantiomer 2)], for which the IC50 in the data set with SUDHL10 [1] and with SUDHL5 [3] was 2.7e-05 M each time.
For `CCc1c2c(nn1C)CN(CC)S(=O)(=O)CCCn1c(C(=O)O)c(CCCOc3cccc4cc(F)ccc34)c3ccc(Cl)c-2c31` (single isomer, unassigned; enantiomer 2) [Example 58, (−)-4-chloro-3,14-diethyl-7-{3-[(6-fluoronaphthalen-1-yl)oxy]propyl}-2-methyl-13,13-dioxo-10,11,12,13,14,15-hexahydro-2H-13lambda^6-pyrazolo[3′,4′:4,5][1,2,8]thiadiazacycloundecino[6,7,8-hi]indole-8-carboxylic acid N-ethylethanamine Salt (Enantiomer 2)], the IC50 is greater than 3.3e-05 M in the data set on AMO-1 (72 hours); 1.5e-05 M in the data set on SUDHL5 [5] (72 hours); 28 nM against MCL-1; 1.2e-05 M in the data set with SUDHL5 [3]; 1.5e-05 M in the data set with HMC-1-8. Moreover, the values for the EC50 with SUDHL5 [2] (3 hours) and in the data set with SUDHL10 [4] (3 hours) were 15000 nM and 32000 nM, respectively.
